Common to all, as to format: physicochemical
Series [1] can be described thus: Specific surface area by nitrogen adsorption isotherms (BET). Particulars: nitrogen adsorption isotherms, BET; listed as Anhydrous crystalline trehalose (Conventional product, Control). On the procedure: Specific surface area of the porous anhydrous crystalline trehalose was measured by the nitrogen adsorption isotherms using “MODEL ASAP-2400”, a specific surface area/pore size distribution analyzer commercialized by Micromeritics, Georgia, USA. […] The result was analyzed by the BET (Brunnauer, Emmet, and Teller) method. The commercial anhydrous crystalline trehalose, a reagent grade, commercialized by Hayashibara Biochemical Laboratories Inc., Okayama, Japan, was used as a control. […] Further, those pore size distribution charts are in FIG. 19. […] The results of the analysis on the specific surface area and the pore size distribution are summarized in Table 7, and the pore size distribution chart was in FIG. 24. As a control, “MALTOSE OM”, a hydrous crystalline maltose product with maltose purity of 98% or higher, produced by Hayashibara Co., Ltd., Okayama, Japan, was used.

Series [2] is described as follows: Pore size distribution by the mercury filling method.
A short description of series [3]: Dissolution test against cold water at 10° C. As to conditions: 20 ml water 10° C., about 300 rpm, 0.5 g trehalose or 0.2 g maltose; for Time required for dissolution, Average: average of 5. On the procedure:
A dissolution test against cold water at 10° C. was carried out using the porous anhydrous crystalline trehalose prepared by treating at 70° C. for 60 min in Example 1, the porous anhydrous crystalline maltose prepared by the method in Example 3, and the porous hydrous crystalline maltose prepared by the method in Example 5, as samples. The results were compared with those of the controls, anhydrous crystalline trehalose, hydrous crystalline trehalose, and hydrous crystalline maltose.
Twenty milliliters of 10° C.-cold water was placed in a test tube with an internal diameter of 18 mm, and then stirred using a stirring bar. A crystalline saccharide sample was put into the test tube, and the time required for the complete dissolution (for the disappearance of precipitate particles) was measured. The amount of samples was set to be 0.5 g in the case of trehalose and to be 0.2 g in the case of maltose, and the stirring rate was set to be about 300 rpm in any case. The measurement of time for dissolution under the above conditions was carried out 5-times at each sample.

Series [4] is described as follows: Oil-keeping ability with salad oil. Particulars: (5 g salad oil / amount of added saccharide) x 100. Also noted: key to Oil-keeping ability: (5 g salad oil / g saccharide added at endpoint) x 100. On the procedure: The oil-keeping ability of each crystalline saccharide was measured using the porous anhydrous crystalline trehalose prepared by treating at 70° C. for 60 min in Example 1, the control hydrous crystalline trehalose, and the control anhydrous crystalline trehalose as crystalline trehalose samples; and the porous anhydrous crystalline maltose prepared by the method in Example 3, the control hydrous crystalline β-maltose, and the control anhydrous crystalline α-maltose, and the control anhydrous crystalline β-maltose as crystalline maltose samples, and the results were compared.
The measurement of the oil-keeping ability of the crystalline saccharide was carried out according to the method disclosed in Japanese Patent Kokai No. 31,650/84. Five grams of “NISSHIN SALAD OIL”, a salad oil commercialized by Nisshin OiliO Group, Ltd., Tokyo, Japan, was placed in a 50-ml plastic container, and then gradually admixed with each powdery crystalline saccharide with stirring. […] When the amount of the mixed saccharide is further increased, the agglomerate increase in solidity and then loosen. The point that the agglomerate is loosened is estimated to be the endpoint and the oil-keeping ability was calculated using the following formula. Oil-Keeping Ability =(The amount of salad oil(5 g)/the amount of added PCS*)×100 *: Powdery crystalline saccharide tm Formula 1

The nature of series [5]: Flax seed oil powder: keeping of powdery form. Particulars: 1 part flax seed oil + 10 parts saccharide as base. How it is done: One part by weight of flax seed oil was admixed with 10 parts by weight of the porous anhydrous crystalline trehalose, prepared by treating at 70° C. for 60 min in Example 1, and then the mixture was kneaded to make into a powdery product. In the same manner, powdery products were prepared by using “TREHA®”, hydrous crystalline trehalose commercialized by Hayashibara Shoji Inc., Okayama, Japan, and anhydrous crystalline trehalose, prepared from hydrous crystalline trehalose by drying in vacuo at a high temperature according to the conventional method, as controls. […] The flaxseed oil powder can be preferably used as a supplement.

Series [6] can be described thus: Preservation test of flax seed oil powder, volatile aldehydes by GC. Particulars: flax seed oil powder with this base. On the procedure: As disclosed in Japanese Patent Kokai No. 123,195/2001 applied for by the same applicant of the present invention, it has been known that trehalose inhibits the decomposition of fatty acids and the formation of volatile aldehydes. Therefore, a preservation test of the flax seed oil powders were carried out according to the following method by using the flax seed oil powders prepared in Example 9 by using the porous anhydrous crystalline trehalose of the present invention or the control anhydrous crystalline trehalose as powderizing bases, and the amounts of the formed volatile aldehydes were compared.
One gram each of the flax seed oil powder was put into two 20 ml-vial, sealed with Butyl-rubber stopper, and then preserved in an incubator at 40° C. for three weeks. The vial was collected at the point of before the preservation or after preserving for 21 days and heated at 80° C. for 5 min. Then, 2 ml of vapor phase gas in the vial was directly subjected to gas chromatography (GC) analysis to determine the amount of volatile aldehydes. GC analysis was carried out according to the following conditions.
• Gas chromatograph: GC-17B, produced by Shimadzu Corporation, Kyoto, Japan; • Column: TC-FFAP capillary column (ID 0.52 mm×30 m), produced by GL Sciences Inc., Tokyo, Japan; • Column temperature: 40° C. to 100° C.

Setting [7] is: listed as control anhydrous crystalline trehalose.
Where [8] appears, read: 21 days after preservation at 40° C.
[9] abbreviates: listed as control hydrous crystalline trehalose.

Read-outs that look alike come from different tables or passages of the source.

In series [1], `OC[C@H]1O[C@H](O[C@H]2O[C@H](CO)[C@@H](O)[C@H](O)[C@H]2O)[C@H](O)[C@@H](O)[C@@H]1O` [Anhydrous crystalline trehalose (Control)] [α-D-glucosyl α-D-glucoside, reference compound] displayed a Specific surface area of 0.465 m^2/g. Further, in series [2], the Intrusion volume is 0.03 mL/g and the Mode pore diameter was 0.46 μm. In series [2] (control maltose values are from space between particles, not pores), this compound displayed a Median pore diameter of 0.40 μm. In series [2] (setting [7]), this compound returned an Intrusion volume of 0.03 mL/g. Further, in series [3], the “Time required for dissolution, No. 1” value was 90 s; the “Time required for dissolution, No. 2” value amounted to 87 s; the “Time required for dissolution, No. 3” value was found to be 96 s; the “Time required for dissolution, No. 4” value turned out to be 91 s. In series [3], the “Time required for dissolution, No. 5” value stood at 86 s and the “Time required for dissolution, Average” value came out at 90 s. The compound also showed an Oil-keeping ability in series [4] of 38.5. In series [4] (setting [7]), this compound yielded an Oil-keeping ability of 38.5. The “Powdery form of flax seed oil powder” value in series [5] (setting [7]) is recorded as “could not keep powdery forms”. Further, in series [6] (setting [8]), the “2,4-Decadienal” value was 7.01 μg/ml-vapor phase gas, the 2-Heptenal is reported as 0.01 μg/ml-vapor phase gas, the 2-Hexenal is 0.02 μg/ml-vapor phase gas and the 2-Nonenal came to 0.27 μg/ml-vapor phase gas. In addition, in series [6] (setting [8]), the 2-Octenal is listed as 0.66 μg/ml-vapor phase gas, the Acetoaldehyde is on record as 8.99 μg/ml-vapor phase gas, the Butanal worked out at 0.93 μg/ml-vapor phase gas and the Hexanal turned out to be 0.16 μg/ml-vapor phase gas. For the same compound, in series [6] (setting [8]), the Pentanal came to 0.55 μg/ml-vapor phase gas, the Propanal was determined as 12.98 μg/ml-vapor phase gas and the Total aldehydes came to 31.58 μg/ml-vapor phase gas. For the same compound, in series [6] (before preservation), the “2,4-Decadienal” value was found to be 6.77 μg/ml-vapor phase gas, the 2-Heptenal is recorded as 0.00 μg/ml-vapor phase gas, the 2-Hexenal is 0.00 μg/ml-vapor phase gas and the 2-Nonenal is on record as 0.01 μg/ml-vapor phase gas. In series [6] (before preservation), the 2-Octenal is 0.23 μg/ml-vapor phase gas, the Acetoaldehyde worked out at 8.91 μg/ml-vapor phase gas, the Butanal is listed as 0.66 μg/ml-vapor phase gas and the Hexanal was 0.07 μg/ml-vapor phase gas. Also, in series [6] (before preservation), the Pentanal was 0.13 μg/ml-vapor phase gas, the Propanal is 10.24 μg/ml-vapor phase gas and the Total aldehydes worked out at 27.02 μg/ml-vapor phase gas.

For the compound `OC[C@H]1O[C@H](O[C@H]2O[C@H](CO)[C@@H](O)[C@H](O)[C@H]2O)[C@H](O)[C@@H](O)[C@@H]1O` [Hydrous crystalline trehalose (Control), α-D-glucosyl α-D-glucoside], in series [3], the “Time required for dissolution, No. 1” value is 106 s; the “Time required for dissolution, No. 2” value amounted to 130 s; the “Time required for dissolution, No. 3” value is 121 s; the “Time required for dissolution, No. 4” value is 135 s. Besides, in series [3], the “Time required for dissolution, No. 5” value amounted to 123 s and the “Time required for dissolution, Average” value was 123 s. This compound also had an Oil-keeping ability in series [4] of 38.5. In series [4] (setting [9]), this compound came in with an Oil-keeping ability of 38.5. Also, the “Powdery form of flax seed oil powder” value in series [5] (setting [9]) is on record as “could not keep powdery forms”.
